Read-outs that look alike come from different tables or passages of the source.

The subject of assay [1] is TNFα. Put plainly: IRAK4 Monocyte TNFα Cell Based Assay (LPS-stimulated, TR-FRET TNFα detection). On the set-up: species or system human. The note with it: Homo sapiens, Monocyte, read-out: EC50 MONO TNF HTRF. The procedure, abridged:
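Monocytes (5,000 cells/well) treated with compound (0.1% DMSO) for 1 hour at 37° C, then stimulated with 50 pg/ml LPS for 4 hours. TNFα in medium quantified by TR-FRET two-antibody detection after overnight room-temperature incubation. Percent of control calculated against unstimulated (0%) and LPS-stimulated (100%) cells.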
(In TR-FRET formats the signal depends on donor and acceptor labels being close together.)

Assay [2] deals with T1, IRAK4 enzyme (Homo sapiens, UniProt Q9NWZ3).
T1 construct: purchased Carna Biosciences, Chuo-ku, Kobe, Japan
T1 sequence (Q9NWZ3 1-460): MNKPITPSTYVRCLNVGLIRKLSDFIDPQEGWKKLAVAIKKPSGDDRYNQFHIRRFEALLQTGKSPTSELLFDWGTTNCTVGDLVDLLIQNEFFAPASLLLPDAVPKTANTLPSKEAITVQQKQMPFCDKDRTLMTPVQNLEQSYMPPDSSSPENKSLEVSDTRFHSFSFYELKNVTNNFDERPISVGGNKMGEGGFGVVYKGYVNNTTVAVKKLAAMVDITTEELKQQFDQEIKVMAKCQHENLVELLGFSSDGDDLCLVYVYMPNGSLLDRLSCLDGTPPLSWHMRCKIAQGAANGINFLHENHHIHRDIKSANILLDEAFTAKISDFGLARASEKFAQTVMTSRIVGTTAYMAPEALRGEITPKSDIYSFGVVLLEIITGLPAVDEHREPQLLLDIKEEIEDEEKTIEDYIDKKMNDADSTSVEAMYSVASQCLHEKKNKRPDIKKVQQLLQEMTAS
Nature of the assay: IRAK4 Biochemical Assay (TR-FRET, STK1 KinEASE). The following applies: 500 μM ATP, Table 2 second part (compounds 33-343), read-out: IC50 IRAK4-HTBS. The procedure, abridged: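 Human IRAK4 (0.75 nM) preincubated 15 min with compound and 2 μM STK1 peptide, then reacted 120 min at room temperature with 500 μM ATP in HEPES pH 7.0 buffer with MgCl2 and DTT. EDTA stop with Cryptate anti-phosphopeptide antibody and tracer, 60 min; TR-FRET read as 665/615 nm ratio.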

[3] abbreviates: human monocytes, LPS-stimulated, Table 2 second part (compounds 33-343).

The term EC50 denotes the concentration that produces a half-maximal response. A word on the IC50: it is the point on the concentration scale where inhibition reaches its midpoint. Consider `COC(=O)NC[C@H]1C[C@H](Nc2cc(-c3ccc4cc(C#N)cnn34)ncc2-c2nnc(N3C[C@H]4CC[C@@H](C3)[C@@H]4NC(C)=O)s2)C1` [Example 52, methyl (((1R,3r)-3-((5-(5-((1R,5S,8S)-8-acetamido-3-azabicyclo[3.2.1]octan-3-yl)-1,3,4-thiadiazol-2-yl)-2-(3-cyanopyrrolo[1,2-b]pyridazin-7-yl)pyridin-4-yl)amino)cyclobutyl)methyl)carbamate], for which the concentration for a half-maximal effect (EC50) in assay [1] (setting [3]) came out at 4.1 nM. Moreover, the IC50 in assay [2] was found to be 0.82 nM.

For `COC(=O)N[C@H]1CC[C@H](Nc2cc(-c3ccc4cc(C#N)cnn34)ncc2-c2nnc(N3C[C@H]4CC[C@@H](C3)[C@@H]4NC(C)=O)s2)CC1` [Example 54, methyl ((1R,4r)-4-((5-(5-((1R,5S,8S)-8-acetamido-3-azabicyclo[3.2.1]octan-3-yl)-1,3,4-thiadiazol-2-yl)-2-(3-cyanopyrrolo[1,2-b]pyridazin-7-yl)pyridin-4-yl)amino)cyclohexyl)carbamate], in assay [1] (setting [3]), the EC50 was 2.4 nM. Besides, in assay [2], the half-inhibitory concentration (IC50) came out at 0.73 nM.

For `CC(=O)N[C@H]1C[C@H]2CC[C@@H](C1)N2c1nnc(-c2cnc(-c3ccc4cc(C#N)cnn34)cc2NC(C)C)s1` [Example 55, N-((1R,3r,5S)-8-(5-(6-(3-cyanopyrrolo[1,2-b]pyridazin-7-yl)-4-(isopropylamino)pyridin-3-yl)-1,3,4-thiadiazol-2-yl)-8-azabicyclo[3.2.1]octan-3-yl)acetamide], in assay [1], the 50% effective concentration (EC50) came to 115 nM. Besides, the half-maximal inhibitory concentration (IC50) in assay [2] worked out at 0.54 nM.

On to `CC(=O)N[C@@H]1C[C@H]2CC[C@@H](C1)N2c1nnc(-c2cnc(-c3ccc4cc(C#N)cnn34)cc2NC(C)C)s1` [Example 56, N-((1R,3s,5S)-8-(5-(6-(3-cyanopyrrolo[1,2-b]pyridazin-7-yl)-4-(isopropylamino)pyridin-3-yl)-1,3,4-thiadiazol-2-yl)-8-azabicyclo[3.2.1]octan-3-yl)acetamide], for which, in assay [1], the 50% effective concentration (EC50) was 8.3 nM. In addition, the half-inhibitory concentration (IC50) in assay [2] came to 0.49 nM.

As for `CC(C)Nc1cc(-c2ccc3cc(C#N)cnn23)ncc1-c1nnc(N2C[C@H]3CC[C@@H](C2)[C@@H]3NC(=O)N2CCOCC2)s1` [Example 57, N-((1R,5S,8s)-3-(5-(6-(3-cyanopyrrolo[1,2-b]pyridazin-7-yl)-4-(isopropylamino)pyridin-3-yl)-1,3,4-thiadiazol-2-yl)-3-azabicyclo[3.2.1]octan-8-yl)morpholine-4-carboxamide], the 50% effective concentration (EC50) in assay [1] (setting [3]) turned out to be 6.8 nM. Besides, the IC50 in assay [2] worked out at 1.16 nM.

With `CC(C)Nc1cc(-c2ccc3cc(C#N)cnn23)ncc1-c1nnc(N2C[C@H]3CC[C@@H](C2)[C@@H]3NS(C)(=O)=O)s1` [Example 58, N-((1R,5S,8s)-3-(5-(6-(3-cyanopyrrolo[1,2-b]pyridazin-7-yl)-4-(isopropylamino)pyridin-3-yl)-1,3,4-thiadiazol-2-yl)-3-azabicyclo[3.2.1]octan-8-yl)methanesulfonamide], the EC50 in assay [1] (setting [3]) came out at 9.3 nM. Moreover, the half-maximal inhibitory concentration (IC50) in assay [2] amounted to 1.88 nM.

With `COC(=O)N[C@@H]1[C@@H]2CC[C@H]1CN(c1nnc(-c3cnc(-c4ccc5cc(C#N)cnn45)cc3NC(C)C)s1)C2` [Example 59, methyl ((1R,5S,8s)-3-(5-(6-(3-cyanopyrrolo[1,2-b]pyridazin-7-yl)-4-(isopropylamino)pyridin-3-yl)-1,3,4-thiadiazol-2-yl)-3-azabicyclo[3.2.1]octan-8-yl)carbamate], the 50% effective concentration (EC50) in assay [1] (setting [3]) turned out to be 14.7 nM. Further, the IC50 in assay [2] amounted to 1.97 nM.

Regarding `CC(C)Nc1cc(-c2ccc3cc(C#N)cnn23)ncc1-c1nnc(N2C[C@H]3CC[C@@H](C2)[C@@H]3N)s1` [Example 60, 7-(5-(5-((1R,5S,8s)-8-amino-3-azabicyclo[3.2.1]octan-3-yl)-1,3,4-thiadiazol-2-yl)-4-(isopropylamino)pyridin-2-yl)pyrrolo[1,2-b]pyridazine-3-carbonitrile], the concentration giving a half-maximal response (EC50) in assay [1] (setting [3]) is 8.5 nM. Besides, in assay [2], the half-inhibitory concentration (IC50) came to 0.97 nM.

For `CC(C)Nc1cc(-c2ccc3cc(C#N)cnn23)ncc1-c1nnc(N2C[C@H]3CC[C@@H](C2)[C@@H]3NC(=O)C(C)(C)O)s1` [Example 85, N-((1R,5S,8s)-3-(5-(6-(3-cyanopyrrolo[1,2-b]pyridazin-7-yl)-4-(isopropylamino)pyridin-3-yl)-1,3,4-thiadiazol-2-yl)-3-azabicyclo[3.2.1]octan-8-yl)-2-hydroxy-2-methylpropanamide], the concentration giving a half-maximal response (EC50) in assay [1] (setting [3]) came out at 3.3 nM. In addition, the concentration for half-maximal inhibition (IC50) in assay [2] was found to be 1.04 nM.

Regarding `C[C@H](C#N)Nc1cc(-c2ccc3cc(C#N)cnn23)ncc1-c1nnc(N2C[C@H]3CC[C@@H](C2)[C@@H]3NC(=O)C(C)(C)O)s1` [Example 86, N-((1R,5S,8S)-3-(5-(4-(((R)-1-cyanoethyl)amino)-6-(3-cyanopyrrolo[1,2-b]pyridazin-7-yl)pyridin-3-yl)-1,3,4-thiadiazol-2-yl)-3-azabicyclo[3.2.1]octan-8-yl)-2-hydroxy-2-methylpropanamide], the 50% effective concentration (EC50) in assay [1] (setting [3]) turned out to be 0.6 nM. Also, the 50% inhibitory concentration (IC50) in assay [2] came to 0.65 nM.

For the molecule `CC(C)(O)C(=O)N[C@@H]1[C@@H]2CC[C@H]1CN(c1nnc(-c3cnc(-c4ccc5cc(C#N)cnn45)cc3NC3COC3)s1)C2` [Example 87, N-((1R,5S,8s)-3-(5-(6-(3-cyanopyrrolo[1,2-b]pyridazin-7-yl)-4-(oxetan-3-ylamino)pyridin-3-yl)-1,3,4-thiadiazol-2-yl)-3-azabicyclo[3.2.1]octan-8-yl)-2-hydroxy-2-methylpropanamide], the concentration for a half-maximal effect (EC50) in assay [1] (setting [3]) was 2.1 nM. Further, the half-inhibitory concentration (IC50) in assay [2] is 0.6 nM.

Turning to `CC(C)Nc1cc(-c2ccc3cc(C#N)cnn23)ncc1-c1nnc(N2C[C@H]3CC[C@@H](C2)[C@@H]3NC(=O)[C@H]2C[C@](C)(O)C2)s1` [Example 92, (1r,3R)-N-((1R,5S,8s)-3-(5-(6-(3-cyanopyrrolo[1,2-b]pyridazin-7-yl)-4-(isopropylamino)pyridin-3-yl)-1,3,4-thiadiazol-2-yl)-3-azabicyclo[3.2.1]octan-8-yl)-3-hydroxy-3-methylcyclobutane-1-carboxamide], the EC50 in assay [1] (setting [3]) stood at 5 nM. Further, in assay [2], the concentration for half-maximal inhibition (IC50) is 1.72 nM.

With `CC(C)Nc1cc(-c2ccc3cc(C#N)cnn23)ncc1-c1nnc(N2C[C@H]3CC[C@@H](C2)[C@@H]3NC(=O)[C@H]2C[C@@](C)(O)C2)s1` [Example 93, (1s,3S)-N-((1R,5S,8s)-3-(5-(6-(3-cyanopyrrolo[1,2-b]pyridazin-7-yl)-4-(isopropylamino)pyridin-3-yl)-1,3,4-thiadiazol-2-yl)-3-azabicyclo[3.2.1]octan-8-yl)-3-hydroxy-3-methylcyclobutane-1-carboxamide], the 50% effective concentration (EC50) in assay [1] (setting [3]) is 5.9 nM. Besides, the half-maximal inhibitory concentration (IC50) in assay [2] was found to be 1.78 nM.

In the case of `CC(C)Nc1cc(-c2ccc3cc(C#N)cnn23)ncc1-c1nnc(N2C[C@H]3CC[C@@H](C2)[C@@H]3NC(=O)C2(C)COC2)s1` [Example 94, N-((1R,5S,8s)-3-(5-(6-(3-cyanopyrrolo[1,2-b]pyridazin-7-yl)-4-(isopropylamino)pyridin-3-yl)-1,3,4-thiadiazol-2-yl)-3-azabicyclo[3.2.1]octan-8-yl)-3-methyloxetane-3-carboxamide], the concentration for a half-maximal effect (EC50) in assay [1] (setting [3]) was found to be 4 nM. For the same molecule, in assay [2], the IC50 worked out at 0.9 nM.

In the case of `CC(C)Nc1cc(-c2ccc3cc(C#N)cnn23)ncc1-c1nnc(N2C[C@H]3CC[C@@H](C2)[C@@H]3NC(=O)C2(C)CCOCC2)s1` [Example 95, N-((1R,5S,8s)-3-(5-(6-(3-cyanopyrrolo[1,2-b]pyridazin-7-yl)-4-(isopropylamino)pyridin-3-yl)-1,3,4-thiadiazol-2-yl)-3-azabicyclo[3.2.1]octan-8-yl)-4-methyltetrahydro-2H-pyran-4-carboxamide], in assay [1] (setting [3]), the concentration giving a half-maximal response (EC50) was 4.1 nM. Besides, the IC50 in assay [2] is 0.7 nM.

Consider `CC(C)Nc1cc(-c2ccc3cc(C#N)cnn23)ncc1-c1nnc(N2C[C@H]3CC[C@@H](C2)[C@@H]3NC(=O)C(C)(C)C(=O)O)s1` [Example 97, 3-(((1R,5S,8s)-3-(5-(6-(3-cyanopyrrolo[1,2-b]pyridazin-7-yl)-4-(isopropylamino)pyridin-3-yl)-1,3,4-thiadiazol-2-yl)-3-azabicyclo[3.2.1]octan-8-yl)amino)-2,2-dimethyl-3-oxopropanoic acid], for which the EC50 in assay [1] (setting [3]) is 21.7 nM. Besides, the IC50 in assay [2] was determined as 0.82 nM.

Regarding `CC(C)Nc1cc(-c2ccc3cc(C#N)cnn23)ncc1-c1nnc(N2C[C@H]3CC[C@@H](C2)[C@@H]3NC(=O)CN=S(C)(C)=O)s1` [Example 98, N-((1R,5S,8s)-3-(5-(6-(3-cyanopyrrolo[1,2-b]pyridazin-7-yl)-4-(isopropylamino)pyridin-3-yl)-1,3,4-thiadiazol-2-yl)-3-azabicyclo[3.2.1]octan-8-yl)-2-((dimethyl(oxo)-16-sulfanylidene)amino)acetamide], in assay [1] (setting [3]), the concentration for a half-maximal effect (EC50) came to 3.2 nM. Further, the IC50 in assay [2] was determined as 1.13 nM.

The record behind these values is patent US12060351B2, “Thiadiazole IRAK4 inhibitors” (Gilead Sciences, Inc., priority 2018, dated 2024).
